The values below come from patent US10016409B2, “Method for improving interstitial flow” (priority 2012, dated 2018).

Data set [1] relates to Tg-SwDI mice. As to the kind of experiment: Perivascular Aβ deposition by immunohistochemical staining. The class given is in vivo. The following applies: vs ordinary feed group. The text has this: To verify interstitial flow improvement by cilostazol, inhibition of deposition of harmful proteins on the cerebrovascular lymph drainage pathway by cilostazol was examined by using a cerebral amyloid angiopathy model. Totally unlike a drainage system through a specific receptor or antigen-antibody reaction, drainage of harmful proteins through the interstitial flow is a general drainage system irrespective of the type and amount of proteins, and Aβ in these examples is merely an example of intracerebral harmful proteins for which the interstitial flow is improved so that deposition on the cerebrovascular lymph drainage pathway is inhibited.
After 15 months from the start of breeding, with respect to Tg-SwDI mice of a group administered with cilostazol-containing feed for 13.5 months and Tg-SwDI mice of the ordinary feed administered group, the brain was perfusion-fixed by using 4% paraformaldehide, and the extracted brain was dehydrated for one day. Then, a paraffin block of a fixed brain tissue was prepared, and a paraffin block was sliced to 6 microns with a microtome. […] An ImageJ (NIH) was used as image analysis software. Five regions of interest were randomly selected from the frontal lobe and the hippocampus region in a tissue section, and photographed in a field with a magnification of 200. The measured data was analyzed by using a t test.

The subject of data set [2] is dementia patients. As to the kind of experiment: Clinical record analysis, MMSE change in dementia patients (MMSE less than or equal to 21) under donepezil hydrochloride oral administration. The class given is in vivo, human. The following applies: dementia patients oral-administered with donepezil hydrochloride.
Excerpt: Patients subjected to oral administration of donepezil hydrochloride, having an observation period of one or more years before the MMSE test date, and having first MMSE scores less than or equal to 26 were picked up from a clinical record. Among the patients, patients recorded to have been consecutively administered with cilostazol for 6 months or more in the observation period were classified as a donepezil hydrochloride and cilostazol combined use group (69 cases), and patients recorded to have experienced no cilostazol oral administration were classified as a donepezil hydrochloride single use group (87 cases). Cilostazol was oral-administered at a dosage of 50 to 200 mg/day in the morning and evening, and donepezil hydrochloride was administered at a dosage of 5 mg/day once in a day.
As a dementia patient group oral-administered with donepezil hydrochloride, patients with MMSE scores less than or equal to 21 were extracted. Then, the donepezil hydrochloride single use group (the single use group) was 51 cases (17 males and 34 females, average age: 78.2 years old) and the donepezil hydrochloride and cilostazol combined use group (the combined use group) was 35 cases (14 males and 21 females, average age: 79.3 years old). The average dosage of cilostazol in the combined use group was 139 mg/day.
Data set [3] concerns Tg-SwDI mice. The data set is described as follows: Cerebrovascular diameter increase under acetylcholine administration to the brain surface. The format is in vivo. Conditions: acetylcholine 100 μM perfused, vs ordinary feed. The text has this: In the brain interstitial flow in a central nervous system, vascular wall motion due to artery vascular pulsation serves as a driving force so that harmful proteins are excreted. Dilation of artery in vascular pulsation occurs when the blood pressure in artery increases due to pulsation of heart. A decrease in dilation ability of artery attenuates vascular wall motion, and reduces the interstitial flow accordingly. In the presence of aged mice and cerebral amyloid angiopathy, vascular elasticity (flexibility) of cerebral artery considerably decreases, and vascular wall motion attenuates. Thus, the ability of excretion of harmful proteins deteriorates. In this study, the influence of cilostazol administration on vascular elasticity ability under acetylcholine administration was examined.
It is known that acetylcholine has the physiological action of improving vascular elasticity. […]
In a manner similar to section (1) regarding vascular elasticity enhancement by cilostazol discussed above, model mice (Tg-SwDI mice) (Davis et al, 2004) showing pathological changes, especially cerebral amyloid angiopathy, were used. […] Cerebral blood vessels were visualized with FITC-dextran, and the rate of change in vessel diameter from a time before administration to 3 minutes after the start of administration was analyzed. […]

The test system of data set [4] is dementia patients. The data set is described as follows: Retrospective clinical survey, MMSE change in dementia patients with first MMSE score less than or equal to 21. The class given is in vivo, human. The text has this: Thus, it is not worth referring to these reports. It is assumed that a considerable degree of irreversible neurodegeneration has progressed in dementia patients, and in view of the action mechanism of the interstitial flow-improving agent, a sufficient therapeutic effect of the interstitial flow-improving agent might not be present for dementia patients. Thus, to evaluate the influence of consecutive oral administration of cilostazol on the cognitive function, a survey of consecutive cases (3183 cases in total) for which record of cilostazol administration between 1996 and 2012 exists was conducted, and examination was conducted by using all the cases matching the following conditions. In this study, to eliminate the influence of anti-dementia drugs, patients administered with anti-dementia drugs such as donepezil were removed from the analysis.
(i) The mini mental state exam (MMSE), which is a typical test of cognitive function, was conducted twice or more with an interval of 6 months or more (in a case where the MMSE was performed three or more times, two examination results of the first examination and the last examination were selected);
(ii) The first MMSE score was less than or equal to 21;
(iii) A case in which cilostazol was administered in a period at least more than a half of an MMSE observation period was selected as a group (hereinafter referred to as a treated group) subjected to consecutive treatment; and
(iv) A case in which cilostazol was administered in two months or less in an MMSE observation period was selected as a group (hereinafter referred to as an untreated group) not subjected to consecutive treatment.
(i) The rate of change in MMSE score in each group (calculation method: [last MMSE score−first MMSE score]/MMSE observation period [years]). In comparison between the two groups, statistical analysis was conducted such that the rate difference was obtained by using a chi-square test and other items were obtained by using a t test.

A further data set relates to Alzheimer's patients. Conditions: cilostazol alone in Alzheimer's patients, Non-patent Document 10; cited from earlier work.
In a further data set the test system is MCI patients. As to the kind of experiment: Clinical record analysis, MMSE change in MCI patients (MMSE 22 to 26) under donepezil hydrochloride oral administration. The class given is in vivo, human. The following applies: additional oral cilostazol in MCI patients under donepezil hydrochloride.

Excerpt for MCI patients: Patients subjected to oral administration of donepezil hydrochloride, having an observation period of one or more years before the MMSE test date, and having first MMSE scores less than or equal to 26 were picked up from a clinical record. Among the patients, patients recorded to have been consecutively administered with cilostazol for 6 months or more in the observation period were classified as a donepezil hydrochloride and cilostazol combined use group (69 cases), and patients recorded to have experienced no cilostazol oral administration were classified as a donepezil hydrochloride single use group (87 cases). Cilostazol was oral-administered at a dosage of 50 to 200 mg/day in the morning and evening, and donepezil hydrochloride was administered at a dosage of 5 mg/day once in a day. Among the patients, patients with MMSE scores greater than or equal to 22 and less than or equal to 26 were extracted as an MCI patient group. Then, 36 cases (16 males and 20 females, average age: 78.4 years old) of the donepezil hydrochloride single use group (hereinafter referred to as a single use group) and 34 cases (15 males and 19 females, average age: 77.2 years old) of the donepezil hydrochloride and cilostazol combined use group (hereinafter referred to as combined use group) were found. The average dosage of cilostazol in the combined use group was 121 mg/day. […] Measurement of MMSE was conducted at least twice in the observation period, and the first and last test results were selected for analysis.

Regarding `O=C1CCc2cc(OCCCCc3nnnn3C3CCCCC3)ccc2N1` [cilostazol, 6-[4-(1-cyclohexyl-1H-tetrazole-5-yl)butoxy]3,4-dihydrocarbostyril], the “deposition of Aβ on the perivascular site” value is reported as “reduced” with Tg-SwDI mice [1] (cilostazol-containing feed for 8 months from 4 months of age, FIG. 15) and “reduced” with Tg-SwDI mice [1] (cilostazol-containing feed for 13.5 months from 1.5 months of age, FIG. 16). In the data set on Tg-SwDI mice [1] (frontal lobe and hippocampus, FIGS. 13 and 14), the “amount of Aβ deposited on a perivascular site” value is on record as “smaller”. Further, the effectiveness for dementia result in the data set with dementia patients [2] is listed as “no effectiveness for dementia”. For the same compound, the “relative increase in cerebrovascular diameter under acetylcholine administration” value is given as “dilated” in the data set with Tg-SwDI mice [3] (cilostazol-containing feed for 8 months, age 12 months, FIG. 23) and “dilated” in the data set on Tg-SwDI mice [3] (cilostazol-containing feed for 13.5 months, age 15 months, FIG. 24). Also, the “rate of change in MMSE score” value with dementia patients [4] (dementia treated group (19 cases), first MMSE less than or equal to 21, average±standard error, P value 0.21 vs untreated) is on record as 0.5±0.7 /year. The “therapeutic effects on dementia” value with dementia patients [4] (first MMSE less than or equal to 21, treated vs untreated) is reported as “no statistically significant therapeutic effects on dementia were observed”. Besides, the “side effects leading to no consecutive cilostazol treatment” value in the data set on dementia patients [4] (untreated group of dementia survey) is “side effects such as diarrhea and headaches”. In addition, in the data set on Alzheimer's patients, the “mini-mental state examination (MMSE)” value was “no change is observed”. The “reduction of the annual decrease rate of MMSE scores” value in the data set with MCI patients was “about 80%”.
